According to patent US20240358829A1, “Lymphocyte Population and Methods for Producing Same” (AVM Biotechnology, LLC, priority 2021, published 2024):
Entries after “also recorded” stand apart in the source; their conditions may differ. Like-named read-outs stand apart in the source and are kept apart here.

Legend:
[1] = system: human AVM-NKT cells (human CD56+ cells); test: Humanized mice orally dosed with DSP (Example 8); type: in vivo, mouse; conditions: oral HED 18-45 mg/kg, 24-48 hours later
Protocol: BRGSF humanized mice on a Balb/c background from Genoway generated by transplanting human umbilical cord blood CD34+ stem cells into irradiated mice that lack mouse B and T lymphocytes and NK cells but have a functional mouse complement system are orally dosed with HED 18-45 mg/kg DSP.
NCG mice are humanized by adoptive transfer using human umbilical cord blood-derived CD34+ stem cells, following myeloablation treatment. NCG mice from 4 donors (n=2 per donor) are orally dosed with HED 18-45 mg/kg DSP.
huNOG EXL from Taconic have an average of 54% of CD45 cells positive for human CD45. Six huNOG EXL humanized immune system mice from 3 donors (n=2 per donor) are orally dosed with HED 18-45 mg/kg DSP.

[2] = system: AVM-NKT cells (CD3highCD49b+); type: in vivo, mouse; conditions: for induction of AVM-NKT cells by comparators: naïve mice, standard Cy/Flu chemotherapy or methylprednisone
Excerpt: Mice were anesthetized with isoflurane gas.

[3] = system: mouse whole blood and splenocytes; test: Ex vivo/in vitro dexamethasone concentration-response curve
[4] = system: CD56+γδTCR+iTCR+ cells; test: AVM0703 R/R NHL clinical trial, whole blood flow cytometry; type: in vivo, human; conditions: listed as DP
Protocol: FIG. 15. 101-001 size (FSC) and complexity (SSC) scattergram of AVM_NKT cells. […] Blood was stained with panel antibodies based for 15 minutes in the dark at Room Temperature. RBC lysis was performed by addition of 1 mL of 1×BD FACS Lysing Solution (BD Bioscience), diluted with MilliQ water, for 10 minutes in the dark at Room Temperature. Samples were washed with 2 mL 1×DPBS CMF (Gibco) and resuspended in 300 μL of 1×DPBS CMF before 5 μL of 7AAD (Biolegend) was added to each sample for live/dead cell determination and incubated for 5 minutes in the dark at Room Temperature. 250 μL of sample were taken up for acquisition on Macsquant 16 Flow Cytometer (Miltenyi, Serial #40150). Live white blood cells were gated for CD56+ cells co-expressing gamma delta TCR and the invariant TCR and labelled red in the forward versus side scattergram. Red-labelled cells fall within the forward versus side scattergrams where large granular cells such as neutrophils and large granular lymphocytes are known to fall.
For characterisation of the induced/mobilized population of NKT-like cells (AVM-NKT) in humans, whole blood from human subjects was drawn in K2 EDTA Vacutainer tube (367862, BD Biosciences, NJ) and shipped to AVM Biotechnology at room temperature. 100 μl of whole blood was stained with the following antibodies: CD45 AF700 (2D1), CD16 APC (3G8), INKT PECy7 (6B11), CD8 PE (SK1), CD14 FITC (M5E2), CD56 BV650 (5.1H11), γδTCR BV510 (B1), CD19 BV421 (HIB19), NKp44 APC (P44-8) (all from Biolegend, San Diego, CA) and CD3 APCVio770 (BW264/56), (Miltenyi Biotec, San Jose, CA), 7-AAD, (Biolegend, San Diego CA) was included to distinguish the live and dead cells.

[5] = system: A20 B cell lymphoma; conditions: 18 mg/kg HED
Protocol: FIG. 10B. […] Mice were inoculated with A20 lymphoma 2×10^6 cells in 100 μL of PBS mixed with 100 μL of chilled Matrigel into their flank. Three, 24 and 48 hours later mice were euthanized and tumors, blood, bone marrow and thymus were taken and made into single cell suspensions for flow cytometry detection of live A20 cells.

[6] = system: R/R NHL; test: AVM0703 R/R NHL clinical trial, clinical and PET/CT response, survival; type: in vivo, human; conditions: patient 108-004, 12 mg/kg; listed as DP
[7] = system: A20 cells; test: A20 cells treated with high dose dexamethasone in vitro; type: cell-based, mouse; conditions: 72 hours after high dose dexamethasone treatment in vitro
[8] = system: peripheral blood lymphocytes; test: Lymphodepletion study in naïve mice (complete blood count, flow cytometry)
Protocol: For initial lymphodepletion studies, naïve C57Bl/6 mice were treated with 18 mg/kg HED DP by oral gavage. Male C57BL/6 mice were obtained from Taconic Bioscience (Germantown, NY) and acclimated to laboratory conditions for at least one week. […] Each dosed timepoint group was accompanied by a placebo group of the same age and condition according to Table 3. […] When mice reached study timepoint, they were euthanized as follows. Mice were anesthetized with isoflurane gas. Once anesthetized, blood was drawn via cardiac puncture and place immediately in heparin-lined microtubes. 10 mL of 5 U/mL of Heparin/PBS was used for infused by slow push for retrograde perfusion via the abdominal aorta to flush out all remaining blood from the vasculature. Subsequently, 250 μL of blood was transferred to a lavender-topped EDTA-lined microtube and transported to by Lynette Brown at Flow Contract Site Labs (Bothell, WA) for analysis by flow cytometry. The remaining blood was sent to Phoenix Labs (Mukilteo, WA) for Complete Blood Counts and Clinical Chemistries

[9] = in vivo; cited from earlier work

## C[C@@H]1C[C@H]2[C@@H]3CCC4=CC(=O)C=C[C@]4(C)[C@@]3(F)[C@@H](O)C[C@]2(C)[C@@]1(O)C(=O)COP(=O)(O)O [DSP, Dexamethasone sodium phosphate]
[1]; BRGSF humanized mice
  cell population corresponding to AVM-NKT cells: can be observed
[1]; HuCD34-NCG mice
  cells corresponding to AVM-NKT cells, % of total splenocytes: 0.2-3%
[1]; huNOG EXL mice
  cells corresponding to AVM-NKT cells, % of total splenocytes: 0.2-3%

## C[C@@H]1C[C@H]2[C@@H]3CCC4=CC(=O)C=C[C@]4(C)[C@@]3(F)[C@@H](O)C[C@]2(C)[C@@]1(O)C(=O)CO [dexamethasone base]
[2]; 15 mg/kg HED
  induction of AVM-NKT cells, dose escalation: particularly robust production
[2]; 6+6 mg/kg HED: 6 mg/kg at time 0 and 6 mg/kg 24 hours later
  induction of AVM-NKT cells, dose escalation: particularly robust production
[2]; single dose between 6-12 mg/kg HED
  induction of AVM-NKT cells, dose escalation: can induce AVM-NKT cells
[3]
  human equivalent dose giving an in vivo peak blood concentration of 100 uM: ~2.8 mg/kg
[3]; ex vivo, any concentration (data not shown)
  response of RBCs: no response
[3]; isolated mouse splenocytes and whole blood, 6 hours incubation
  concentration above which apoptosis decreases (biphasic curve): above 100 uM

## C[C@@H]1C[C@H]2[C@@H]3CCC4=CC(=O)C=C[C@]4(C)[C@@]3(F)[C@@H](O)C[C@]2(C)[C@@]1(O)C(=O)COP(=O)(O)O [dexamethasone phosphate, Dexamethasone phosphate, reference compound]
[4]; patient 103-005, 9 mg/kg, 1 hour post-infusion
  CD56+ γδTCR+ iTCR+ cells/uL: 22 cells/uL
[4]; patient 108-004, 12 mg/kg, one hour, 3 days or 14 days after infusion (pre-infusion 0.09%, 4.6 cells/uL)
  CD56+γδTCR+invTCR+ cells in blood: no evidence
[5]
  time of maximal ablation of A20 lymphoma implanted in the flank: ≤ 3 h
  time of maximal eradication of A20 metastasis to blood and thymus: 24 h
  time of maximal eradication of A20 metastasis to bone marrow: 48 h
[6]
  objective beneficial response (PET/CT, clinical chemistries, CBCs or clinical symptoms): did not have a clinical response

## C[C@@H]1C[C@H]2[C@@H]3CCC4=CC(=O)C=C[C@]4(C)[C@@]3(F)[C@@H](O)C[C@]2(C)[C@@]1(O)C(=O)CO [dexamethasone]
[2]; normal mice, after dexamethasone dosing
  time to induction of AVM-NKT cells in the spleen: ≤ 48 h
[7]
  apoptosis of A20 cells: about 30%
[8]; 18 mg/kg HED DP, 18 mg/kg
  platelet numbers: spared; also recorded: does not affect
[8]; 18 mg/kg HED DP, 6 hours to 35 days, 18 mg/kg
  number of live hematopoietic stem cells: spared or increased; also recorded: does not significantly alter
[8]; high-dose dexamethasone
  Basophils: reduced only at the 6 hour time point
  MSCs: spared or increased
  RBCs: spared
  eosinophils: reduced only at the 24 and 48 hour time points

## C[C@]12C=CC(=O)C=C1CC[C@@H]1[C@@H]2C(=O)C[C@@]2(C)[C@H]1CC[C@]2(O)C(=O)CO [prednisone]
[9]
  biologic half-life: about 20 hours

## cyclophosphamide/fludarabine [Cy/Flu]
[2]
  induction of AVM-NKT cells by comparators: not induced
[2]; listed as Cyclophosphamide/fludarabine
  induction of AVM-NKT cells by comparators: does not induce
[8]; 13 mg/kg HED cyclophosphamide and 0.8 mg/kg HED fludarabine, 48 hours
  Total NKT cell numbers: no such increase

## methylprednisone
[2]
  induction of AVM-NKT cells by comparators: not induced
